Results published in US20260287592A1, “ANALYSIS METHOD AND ANALYSIS SYSTEM” (priority 2023, published 2026).

Test system: HER3
Conditions: Type3: SN-38 0.01 μM, gefitinib 0.00 μM; SKBR-3 cells, 24 hours; anti-HER3 staining

CCc1c2c(nc3ccc(O)cc13)-c1cc3c(c(=O)n1C2)COC(=O)[C@]3(O)CC [SN-38, 7-ethyl-10-hydroxycamptothecin]
AVERAGE VALUE OF 10 WELLS FOR NUMBER OF BRIGHT SPOTS PER CELL: 12
